Test results published in ChEMBL document CHEMBL4613315, “Design of First-in-Class Dual EZH2/HDAC Inhibitor: Biochemical Activity and Biological Evaluation in Cancer Cells” (ACS Med Chem Lett, 2020).

Experiments:
[1] = target: T1, Histone-lysine N-methyltransferase EZH2 (Homo sapiens, UniProt Q15910); experiment: Inhibition of human EZH2 using core histone as substrate incubated for 1 hr by fluorescence based assay
Target sequence in this assay (Q15910 whole entry): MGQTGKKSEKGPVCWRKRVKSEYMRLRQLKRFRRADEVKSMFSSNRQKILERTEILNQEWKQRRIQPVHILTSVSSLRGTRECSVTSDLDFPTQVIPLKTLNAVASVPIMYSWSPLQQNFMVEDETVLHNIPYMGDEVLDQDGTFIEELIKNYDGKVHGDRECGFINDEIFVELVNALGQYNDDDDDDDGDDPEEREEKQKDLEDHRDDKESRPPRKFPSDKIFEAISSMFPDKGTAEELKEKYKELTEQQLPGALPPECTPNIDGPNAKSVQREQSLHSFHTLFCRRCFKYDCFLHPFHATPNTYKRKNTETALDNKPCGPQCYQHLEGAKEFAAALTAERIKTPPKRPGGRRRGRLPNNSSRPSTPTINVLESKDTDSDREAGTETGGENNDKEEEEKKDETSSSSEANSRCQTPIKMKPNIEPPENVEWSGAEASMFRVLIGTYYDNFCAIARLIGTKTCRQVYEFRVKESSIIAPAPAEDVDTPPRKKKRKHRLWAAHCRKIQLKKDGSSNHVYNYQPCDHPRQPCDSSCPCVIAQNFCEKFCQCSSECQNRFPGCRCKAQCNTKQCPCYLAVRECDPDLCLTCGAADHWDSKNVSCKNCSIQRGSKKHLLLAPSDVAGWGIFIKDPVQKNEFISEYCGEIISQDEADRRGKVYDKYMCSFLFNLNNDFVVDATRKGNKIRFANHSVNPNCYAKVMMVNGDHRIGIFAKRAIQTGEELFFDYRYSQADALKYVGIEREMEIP

[2] = target: T1, Histone-lysine N-methyltransferase EZH2; experiment: Inhibition of human EZH2 using core histone as substrate at 100 uM incubated for 1 hr by fluorescence based assay relative to control
Target sequence in this assay (Q15910 whole entry, looked up): as the sequence (Q15910 whole entry) above

Histone deacetylase 3 = Histone deacetylase 3 (Homo sapiens, UniProt O15379); experiment: Inhibition of human recombinant HDAC3 using AMC-K(Ac)GL as substrate by fluorescence based assay
Sequence of Histone deacetylase 3 (O15379 whole entry): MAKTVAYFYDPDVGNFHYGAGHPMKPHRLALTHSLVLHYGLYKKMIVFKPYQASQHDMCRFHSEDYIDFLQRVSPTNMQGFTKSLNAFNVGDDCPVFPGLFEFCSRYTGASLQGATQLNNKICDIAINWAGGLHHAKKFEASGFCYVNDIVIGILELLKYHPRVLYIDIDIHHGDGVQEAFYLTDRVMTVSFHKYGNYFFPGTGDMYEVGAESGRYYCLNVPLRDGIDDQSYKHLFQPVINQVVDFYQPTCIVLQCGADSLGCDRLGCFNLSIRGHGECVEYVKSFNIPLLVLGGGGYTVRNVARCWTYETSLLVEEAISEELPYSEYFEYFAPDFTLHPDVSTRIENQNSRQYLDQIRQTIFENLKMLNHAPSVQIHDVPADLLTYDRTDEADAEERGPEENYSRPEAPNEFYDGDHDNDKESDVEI

Histone deacetylase 2 = Histone deacetylase 2 (Homo sapiens, UniProt Q92769)
Sequence of Histone deacetylase 2 (Q92769 whole entry): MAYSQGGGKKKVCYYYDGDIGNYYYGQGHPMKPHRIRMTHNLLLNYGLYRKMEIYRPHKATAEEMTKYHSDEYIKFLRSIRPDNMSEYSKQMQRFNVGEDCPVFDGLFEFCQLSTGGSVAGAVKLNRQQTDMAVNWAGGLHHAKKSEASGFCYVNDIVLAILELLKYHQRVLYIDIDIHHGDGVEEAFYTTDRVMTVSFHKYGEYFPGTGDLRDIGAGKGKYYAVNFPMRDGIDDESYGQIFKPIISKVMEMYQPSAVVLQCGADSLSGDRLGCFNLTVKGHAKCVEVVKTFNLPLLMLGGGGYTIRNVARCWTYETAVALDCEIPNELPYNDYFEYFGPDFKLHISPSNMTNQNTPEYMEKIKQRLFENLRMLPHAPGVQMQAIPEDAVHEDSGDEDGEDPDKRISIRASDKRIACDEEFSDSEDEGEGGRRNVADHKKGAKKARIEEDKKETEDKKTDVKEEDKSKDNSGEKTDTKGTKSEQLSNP
Description: Inhibition of human recombinant HDAC2 using AMC-K(Ac)GL as substrate by fluorescence based assay

[3] = target: T2, Protein deacetylase HDAC6 (Homo sapiens, UniProt Q9UBN7); experiment: Inhibition of human recombinant HDAC6 using AMC-K(Ac)GL as substrate by fluorescence based assay
T2 sequence (Q9UBN7 whole entry): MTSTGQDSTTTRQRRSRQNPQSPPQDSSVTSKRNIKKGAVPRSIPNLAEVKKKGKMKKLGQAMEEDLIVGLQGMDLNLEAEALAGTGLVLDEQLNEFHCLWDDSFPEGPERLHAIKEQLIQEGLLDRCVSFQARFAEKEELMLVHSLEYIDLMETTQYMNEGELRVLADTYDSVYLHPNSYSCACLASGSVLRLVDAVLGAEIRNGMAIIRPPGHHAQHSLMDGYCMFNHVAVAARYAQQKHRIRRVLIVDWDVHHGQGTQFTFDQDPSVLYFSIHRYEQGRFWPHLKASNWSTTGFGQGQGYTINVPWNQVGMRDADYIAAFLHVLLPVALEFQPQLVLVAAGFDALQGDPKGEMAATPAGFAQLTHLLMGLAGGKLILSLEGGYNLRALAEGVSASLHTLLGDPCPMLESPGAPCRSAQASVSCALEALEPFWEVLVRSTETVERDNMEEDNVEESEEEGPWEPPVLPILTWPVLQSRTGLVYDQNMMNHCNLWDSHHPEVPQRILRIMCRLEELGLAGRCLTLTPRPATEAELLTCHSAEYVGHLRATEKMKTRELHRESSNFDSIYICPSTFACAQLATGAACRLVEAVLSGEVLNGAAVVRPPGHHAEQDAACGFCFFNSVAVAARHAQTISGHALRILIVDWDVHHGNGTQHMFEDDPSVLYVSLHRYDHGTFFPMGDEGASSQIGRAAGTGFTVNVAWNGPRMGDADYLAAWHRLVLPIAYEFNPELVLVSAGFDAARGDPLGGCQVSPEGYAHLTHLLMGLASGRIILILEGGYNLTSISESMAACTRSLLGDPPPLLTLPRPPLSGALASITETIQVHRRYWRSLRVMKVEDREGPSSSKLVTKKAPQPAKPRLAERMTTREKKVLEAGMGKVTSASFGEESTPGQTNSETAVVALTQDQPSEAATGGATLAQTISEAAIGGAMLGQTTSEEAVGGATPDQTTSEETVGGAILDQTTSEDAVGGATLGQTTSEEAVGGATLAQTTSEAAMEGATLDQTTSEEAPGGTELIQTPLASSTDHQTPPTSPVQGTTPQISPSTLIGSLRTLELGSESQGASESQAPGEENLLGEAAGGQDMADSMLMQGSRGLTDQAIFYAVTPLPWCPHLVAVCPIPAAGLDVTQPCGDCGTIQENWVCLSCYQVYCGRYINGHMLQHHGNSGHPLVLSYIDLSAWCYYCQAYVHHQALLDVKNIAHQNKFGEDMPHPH

Histone deacetylase 1 = Histone deacetylase 1 (Homo sapiens, UniProt Q13547); experiment: Inhibition of human recombinant HDAC1 using AMC-K(Ac)GL as substrate by fluorescence based assay
Sequence of Histone deacetylase 1 (Q13547 whole entry): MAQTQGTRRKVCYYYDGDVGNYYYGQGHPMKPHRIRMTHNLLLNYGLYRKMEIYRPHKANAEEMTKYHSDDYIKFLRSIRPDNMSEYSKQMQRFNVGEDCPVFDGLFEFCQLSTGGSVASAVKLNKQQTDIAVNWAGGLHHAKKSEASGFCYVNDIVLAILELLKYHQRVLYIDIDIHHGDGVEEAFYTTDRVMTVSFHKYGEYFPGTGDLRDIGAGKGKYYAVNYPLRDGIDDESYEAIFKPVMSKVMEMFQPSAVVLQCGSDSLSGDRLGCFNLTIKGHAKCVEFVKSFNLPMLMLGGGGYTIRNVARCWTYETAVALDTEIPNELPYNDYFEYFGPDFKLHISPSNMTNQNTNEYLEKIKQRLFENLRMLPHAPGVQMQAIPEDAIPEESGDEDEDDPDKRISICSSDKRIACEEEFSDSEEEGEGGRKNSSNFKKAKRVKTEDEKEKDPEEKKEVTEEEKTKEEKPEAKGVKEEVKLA

Histone deacetylase 5 = Histone deacetylase 5 (Homo sapiens, UniProt Q9UQL6); experiment: Inhibition of human recombinant HDAC5 using AMC-K(TFA)GL as substrate by fluorescence based assay
Sequence of Histone deacetylase 5 (Q9UQL6 whole entry): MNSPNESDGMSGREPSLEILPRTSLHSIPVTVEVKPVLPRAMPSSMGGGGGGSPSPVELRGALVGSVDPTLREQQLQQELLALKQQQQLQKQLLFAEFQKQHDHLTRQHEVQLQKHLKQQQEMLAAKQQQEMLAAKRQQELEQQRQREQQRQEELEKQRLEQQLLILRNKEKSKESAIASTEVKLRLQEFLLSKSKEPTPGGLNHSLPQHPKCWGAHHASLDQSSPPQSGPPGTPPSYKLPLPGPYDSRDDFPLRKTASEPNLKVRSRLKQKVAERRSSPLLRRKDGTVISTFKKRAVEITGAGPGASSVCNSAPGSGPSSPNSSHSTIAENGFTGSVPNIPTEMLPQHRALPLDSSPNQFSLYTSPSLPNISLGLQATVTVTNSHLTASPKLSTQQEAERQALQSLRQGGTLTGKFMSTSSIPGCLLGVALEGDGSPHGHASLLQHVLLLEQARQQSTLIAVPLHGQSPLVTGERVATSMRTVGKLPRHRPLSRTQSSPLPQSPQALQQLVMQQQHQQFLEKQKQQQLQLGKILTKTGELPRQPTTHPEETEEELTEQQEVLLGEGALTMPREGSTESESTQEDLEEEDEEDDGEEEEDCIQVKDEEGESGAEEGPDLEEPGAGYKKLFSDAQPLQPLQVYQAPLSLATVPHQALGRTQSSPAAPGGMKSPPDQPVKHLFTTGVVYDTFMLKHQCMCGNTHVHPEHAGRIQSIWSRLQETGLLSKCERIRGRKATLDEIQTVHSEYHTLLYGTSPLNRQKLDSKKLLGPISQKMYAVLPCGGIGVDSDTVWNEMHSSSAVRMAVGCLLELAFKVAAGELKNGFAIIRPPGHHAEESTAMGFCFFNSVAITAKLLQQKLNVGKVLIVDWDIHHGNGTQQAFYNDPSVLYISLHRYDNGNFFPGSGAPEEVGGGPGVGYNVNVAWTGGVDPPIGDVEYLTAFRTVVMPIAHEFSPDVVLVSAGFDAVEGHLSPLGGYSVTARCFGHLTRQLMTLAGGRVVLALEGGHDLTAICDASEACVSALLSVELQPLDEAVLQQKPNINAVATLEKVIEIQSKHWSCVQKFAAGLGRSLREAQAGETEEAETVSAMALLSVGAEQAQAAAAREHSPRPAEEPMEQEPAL

Histone deacetylase 8 = target: T3, Histone deacetylase 8 (Homo sapiens, UniProt Q9BY41); experiment: Inhibition of human recombinant HDAC8 using AMC-K(Ac)GL as substrate by fluorescence based assay
T3 sequence (Q9BY41 whole entry): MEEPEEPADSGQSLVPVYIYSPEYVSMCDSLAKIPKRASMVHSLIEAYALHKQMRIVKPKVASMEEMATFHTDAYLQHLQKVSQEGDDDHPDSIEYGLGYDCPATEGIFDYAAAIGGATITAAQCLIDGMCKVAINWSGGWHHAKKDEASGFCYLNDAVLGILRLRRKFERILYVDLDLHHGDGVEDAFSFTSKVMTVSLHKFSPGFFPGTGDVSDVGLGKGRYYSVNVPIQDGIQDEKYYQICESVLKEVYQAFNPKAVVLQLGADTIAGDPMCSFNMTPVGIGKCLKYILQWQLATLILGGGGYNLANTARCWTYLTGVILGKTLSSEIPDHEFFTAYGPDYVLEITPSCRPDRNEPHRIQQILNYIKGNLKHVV

IC50 [1]	inhibition [2]	IC50 (Histone deacetylase 3)	IC50 (Histone deacetylase 2)	IC50 [3]	IC50 (Histone deacetylase 1)	IC50 (Histone deacetylase 5)	IC50 (Histone deacetylase 8)	SMILES
15.4 µM								Cc1cc(C)c(CNC(=O)c2cnn(-c3ccccc3)c2C)c(=O)[nH]1
	4%	1480 nM	2360 nM	10 nM	830 nM	101 µM	2080 nM	Cc1cc(C)c(CNC(=O)c2cnn(-c3cccc(NC(=O)CCCCCCC(=O)NO)c3)c2C)c(=O)[nH]1
